# Assay results reported in patent US20230210845A1, “DOSING METHODS FOR TREATMENT OF CARDIOVASCULAR CONDITIONS” (IMBRIA PHARMACEUTICALS, INC., priority 2020, published 2023).
# Where two headings read alike, the source gives them in different places.
# How the values were obtained:
# [1] = SAD part (and integrated FE arm): safety and tolerability (TEAEs)
# Method: (§1) Each subject participated in only 1 group during the study.
# (§2) AEs were recorded from (first) admission until completion of the follow-up visit. Any clinically significant observations in results of clinical laboratory, 12-lead ECGs, vital signs, or physical examinations were recorded as AEs.
# (§3) A treatment-emergent AE (TEAE) was defined as any event not present prior to (the first) administration of the study drug or any event already present that worsened in either severity or frequency following exposure to the study drug.
# (§4) At several time points before and after drug administration, subjects were asked nonleading questions to determine the occurrence of AEs. Subjects were asked in general terms about any AEs at regular intervals during the study. In addition, all AEs reported spontaneously during the course of the study were recorded. Details included description of the event, date and time of onset, date and time of end, total duration, severity, relationship to study drug, intervention, seriousness, and outcome. All answers were interpreted by the Investigator and were recorded in the eCRF. All AEs were classified according to the Medical Dictionary for Regulatory Activities (MedDRA; Version 22.0) for AEs.
# (§5) The severity of the AEs was rated as mild, moderate, or severe; the relationship between the AEs and the study drug was indicated as none, unlikely, possibly, likely, or definitely. Adverse events assessed as possibly, likely, or definitely were considered related to the study drug; AEs assessed as none or unlikely were considered not related to the study drug.
# [2] = clinical; parameters: species or system human (healthy subjects); conditions: human, in vivo, po, 35 mg
# Method: as §1
# (§6) The blood samples were taken via an indwelling intravenous catheter or by direct venipuncture. The exact times of blood sampling were recorded in the eCRF.
# [3] = SAD part: PK in urine (urinary excretion, renal clearance); format: in vivo, human (healthy subjects); conditions: for CL renal: human, urine, read-out: geometric mean renal clearance (CLR) (converted)
# Method: Urine collection for PK was only conducted in the SAD part, but not in the second period of the FE group A4.
# The subjects were instructed to empty their bladders completely before study drug administration and at the end of each collection interval. A blank urine sample was collected within 12 hours prior to study drug administration. The exact times of urine collection and the urine weight of the entire interval (before and after addition of any urine stabilizers, if used) were recorded in the eCRF.
# [4] = clinical; format: in vivo, human (healthy subjects); conditions: plasma; for Tmax: human, oral, 150 mg, read-out: median tmax
# Method: Subjects from Group A4 of the SAD part were assigned to the integrated FE arm. After administration of the drug to fasting subjects in the SAD part, the FE arm used the same subjects and experimental procedures.
# Before dosing, subjects fasted overnight for at least 10 hours following a snack on the evening before. Then, subjects received an FDA-defined high-fat breakfast that had to be consumed within 20 minutes. The entire breakfast had to be consumed by the subjects. Dosing occurred at 30 minutes after the start of breakfast. Following dosing, subjects fasted for 4 hours until lunch. During fasting, fluids other than water were not allowed.
# [5] = clinical
# Method: Subjects with R2 below 0.80 or %AUCextra>20% were not excluded from the dose-proportionality evaluation based on AUC0-inf. A point estimate and 95% CI were produced for the slope. […] Since there were only 2 dose levels in the MAD part, no dose-proportionality analysis was performed for the MAD part.
# [6] = 28-day dog toxicology study (NOAEL and exposure); format: in vivo; conditions: for AUC0-8×2: Day 26, IMB-1018972 200 mg/kg/day
# Method: Based on the nonclinical toxicology data, it was considered that subjects in this clinical study were not at unreasonable risk of adverse effects. […] For a 60-kg individual, the NOAEL dose would be 6480 mg. With a 10-fold safety factor applied, this would allow for a maximum recommended starting dose (MRSD) of 648 mg/day.7,8 The planned starting dose in the current Phase 1 study was 50 mg, equivalent to 0.83 mg/kg/day for a 60-kg subject. This starting dose is less than 10% of the MRSD determined from the dog NOAEL and less than 1% of the dog NOAEL.
# The relevant animal study was the 28-day dog study where the NOAEL for IMB-1018972 was 200 mg/kg/day.
# [7] = Method: Subjects received multiple oral doses of an IR formulation of IMB-1018972 or placebo once every 12 hours (q12h) for 14 consecutive days.
# The doses were selected based upon the safety, tolerability, and PK data from the SAD part: • Group B1 multiple oral doses of an IR formulation of 150 mg IMB-1018972 (n=9) or matching placebo (n=3) twice daily (q12h) for 14 days; on Day 14 only a single morning dose was administered • Group B2: multiple oral doses of an IR formulation of 50 mg IMB-1018972 (n=9) or matching placebo (n=3) q12h for 14 days; on Day 14 only a single morning dose was administered
# Before each morning dose, subjects fasted overnight for at least 10 hours following a snack on the evening before. On Days 1 and 14, subjects received a standardized breakfast that had to be consumed within 20 minutes. Dosing occurred at 30 minutes after the start of breakfast. Following dosing, subjects fasted for 4 hours until lunch. During fasting, fluids other than water were not allowed. On Days 2 to 13, breakfast was not standardized and was given within maximally 1 hour before dosing and consumed before dosing. No fasting after dosing was applicable on these days.
# [8] = FIH study: plasma PK, single and multiple dose results combined; format: in vivo, human (healthy subjects); conditions: all blood samples of subjects that received IMB-1018972
# Method: This was a double-blind, randomized, placebo-controlled study, consisting of a single ascending dose (SAD) part with integrated food effect (FE) arm, a multiple ascending dose (MAD) part, to assess the safety, tolerability, and PK of ascending single and multiple oral doses of IMB-1018972 (immediate-release [IR] formulation in the SAD and MAD parts).
# as §6
# [9] = FIH study overall safety (deaths, clinical laboratory, vital signs, ECG, telemetry, physical examination)
# Method: AEs were recorded from (first) admission until completion of the follow-up visit. Any clinically significant observations in results of clinical laboratory, 12-lead ECGs, vital signs, or physical examinations were recorded as AEs. […]
# Systolic and diastolic blood pressure and pulse were recorded after the subject had been resting for at least 5 minutes in the supine position. […] Body temperature and respiratory rate were measured subsequently.
# The ECG was recorded using an ECG machine equipped with computer-based interval measurements (with no/minimal disturbance by procedures). The following ECG parameters were recorded: heart rate, PR-interval, QRS-duration, QT-interval, QTcF-interval, and the interpretation of the ECG profile by the Investigator.
# Physical examination was performed according to PRA SOPs. In addition, body weight and height were measured according to PRA SOPs.
# [10] = MAD part: safety and tolerability (TEAEs); format: in vivo, human (healthy subjects)
# Method: as §2, §3, §4, §5
# [11] = single oral dose 35 mg trimetazidine, all 4 TEAEs
# [12] = 150 mg IMB-1018972, fasted (FE group)
# [13] = 150 mg IMB-1018972, fed (FDA high-fat breakfast)
smiles,measurement,setting,value
COc1ccc(CN2CCNCC2)c(OC)c1OC [trimetazidine],total number of TEAEs,[1]; single oral dose 35 mg trimetazidine,4
same,relationship of TEAEs to study drug,[1]; [11],not to be related to the study drug
same,severity of TEAEs,[1]; [11],mild severity
same,AUC(0-inf),[2],929 ng·h/mL
same,AUC(0-t),[2],912 ng·h/mL
same,Cmax,[2],68.6 ng/mL
same,half-life,[2],7.49 h
same,CL renal,"[3]; oral, range over single doses 50 mg to 400 mg IMB-1018972",302 to 347 mL/min
same,CL renal,"[3]; po, 35 mg",340 mL/min
same,arithmetic mean percent of the dose excreted in urine,[3]; within 48 hours after single oral dose of 35 mg trimetazidine,54.47%
same,Tmax,[4]; [12],1.5 h
same,Tmax,[4]; [13],4 h
same,Tmax,"[5]; human, in vivo",1.5 to 2 h
same,time postdose at which detectable concentrations generally seen,"[5]; human, in vivo",15 to 30 min
same,Tmax,"[5]; human, in vivo, po, 50 mg",1 to 2 h
same,half-life,"[5]; human, plasma, oral",6.76 to 8 h
COc1ccc(CN2CCN(CCO)CC2)c(OC)c1OC [IMB-1028814],median tmax,[4]; [12],1 h
same,median tmax,[4]; [13],2 h
same,AUC0-8×2,[6]; female dogs,"652,849 ng.h/mL"
same,AUC0-8×2,[6]; male dogs,"417,733 ng.h/mL"
same,"state of concentrations at Day 14 dose (trough concentrations, visual inspection)",[7]; 150 mg fed and 50 mg fed q12h,steady-state conditions
same,geometric mean Cmax higher on Day 1 in MAD part than after single dose in SAD part,[7]; 150 mg fed in both parts,97%
same,geometric mean t1/2,[7]; Day 14 after 50 mg q12h fed,2.79 h
same,geometric mean t1/2,[7]; Day 14 after 150 mg q12h fed,4.48 h
same,"dose proportionality for Cmax, AUC0-t, AUC0-inf (95% CIs of slopes included 1)","[5]; IMB-1018972 single-dose range 50 to 400 mg, fasted",no evidence of a deviation from dose proportionality
same,median tmax,"[5]; plasma, single-dose range 50 mg to 400 mg IMB-1018972 IR, fasted",around 1 hours
COc1ccc(CN2CCN(CCOC(=O)c3cccnc3)CC2)c(OC)c1OC [IMB-1018972],effect of dosing under fed conditions on TEAEs,"[1]; FE arm of SAD part, 150 mg",appeared to attenuate the number and incidence of TEAEs
same,TEAEs of flushing of mild severity,[1]; SAD part,1
same,TEAEs of flushing of moderate severity,[1]; SAD part,5
same,number of TEAEs of flushing (most common AEs),[1]; SAD part,6
same,severe TEAEs,[1]; SAD part,No severe TEAEs were reported
same,subjects reporting drug-related TEAEs of flushing,[1]; SAD part (6 subjects),25%
same,subjects reporting drug-related TEAEs,[1]; SAD part (7 of 24),29.2%
same,serious adverse event leading to withdrawal,"[1]; Subject 131, 150 mg fasted, FE arm Group A4, moderate, unlikely related",influenza like illness
same,total number of TEAEs,[1]; all IMB-1018972 subjects of SAD part,45
same,drug-related TEAEs,[1]; following 50 mg and 150 mg (fasted only group),No drug-related TEAEs were reported
same,subjects who reported flushing,"[1]; single dose 150 mg fasted, FE arm (n=6)",2
same,measurability of parent compound in plasma,[8],could be measured in only few plasma samples
same,"clinical laboratory, vital signs, 12-lead ECG, telemetry, physical examination","[9]; single and multiple oral doses, IR formulation",no findings of clinical relevance
same,deaths,[9]; whole study,no deaths reported
same,TEAEs of flushing,[10]; 50 mg q12h fed,No TEAEs of flushing were reported
same,number of TEAEs of flushing (incidental and mild),[10]; 150 mg q12h fed,7
same,subjects with TEAEs of flushing,[10]; 150 mg q12h fed (n=9),6
same,subjects reporting drug-related TEAEs,[10]; MAD part (6 of 18),33.3%
same,subjects reporting TEAEs not related to the study drug,[10]; MAD part (11 of 18),61.1%
same,severity of TEAEs,"[10]; MAD part, all TEAEs",mild severity
same,total number of TEAEs,[10]; all IMB-1018972 subjects of MAD part,35
same,maximum recommended starting dose (MRSD),"[6]; both, dog, in vivo, 28 days",648 mg/day
